Biological target: T1, ΔF508-CFTR (Homo sapiens, UniProt P13569, DEL508-508)
T1 construct: expressed in transfected cells
Assay: Membrane potential optical (FRET/VIPR) assay, identification of potentiator compounds
Format: cell-based
Conditions: Table 3, assay not given; for % Activity: relative efficacy
Text: I) Membrane Potential Optical Methods for Assaying ΔF508-CFTR Modulation Properties of Compounds The optical membrane potential assay utilized voltage-sensitive FRET sensors described by Gonzalez and Tsien (See, Gonzalez, J. E. and R. Y. Tsien (1995) “Voltage sensing by fluorescence resonance energy transfer in single cells” Biophys J 69(4): 1272-80, and Gonzalez, J. E. and R. Y. Tsien (1997) “Improved indicators of cell membrane potential that use fluorescence resonance energy transfer” Chem Biol 4(4): 269-77) in combination with instrumentation for measuring fluorescence changes such as the Voltage/Ion Probe Reader (VIPR) (See, […]. Oades, et al. (1999) “Cell-based assays and instrumentation for screening ion-channel targets” Drug Discov Today 4(9): 431-439). These voltage sensitive assays are based on the change in fluorescence resonant energy transfer (FRET) between the membrane-soluble, voltage-sensitive dye, DiSBAC2(3), and a fluorescent phospholipid, CC2-DMPE, which is attached to the outer leaflet of the plasma membrane and acts as a FRET donor. Changes in membrane potential (Vm) cause the negatively charged DiSBAC2(3) to redistribute across the plasma membrane and the amount of energy transfer from CC2-DMPE changes accordingly. The changes in fluorescence emission were monitored using VIPR which is an integrated liquid handler and fluorescent detector designed to conduct cell-based screens in 96- or 384-well microtiter plates. To identify potentiators of ΔF508-CFTR, a double-addition HTS assay format was developed. During the first addition, a Cl^--free medium with or without test compound was added to each well. […] (in mM) NaCl 160, KCl 4.5, CaCl2 2, MgCl2 1, HEPES 10, pH 7.4 with NaOH. • Chloride-free bath solution: Chloride salts in Bath Solution #1 are substituted with gluconate salts. • CC2-DMPE: Prepared as a 10 mM stock solution in DMSO and stored at -20° C. • DiSBAC2(3): Prepared as a 10 mM stock in DMSO and stored at -20° C. NIH3T3 mouse fibroblasts stably expressing ΔF508-CFTR are used for optical measurements of membrane potential. […] For all optical assays, the cells were seeded at 30,000/well in 384-well matrigel-coated plates and cultured for 2 hrs at 37° C. before culturing at 27° C. for 24 hrs. for the potentiator assay.

T1 sequence (P13569 with tags, fused parts or gaps DEL508-508): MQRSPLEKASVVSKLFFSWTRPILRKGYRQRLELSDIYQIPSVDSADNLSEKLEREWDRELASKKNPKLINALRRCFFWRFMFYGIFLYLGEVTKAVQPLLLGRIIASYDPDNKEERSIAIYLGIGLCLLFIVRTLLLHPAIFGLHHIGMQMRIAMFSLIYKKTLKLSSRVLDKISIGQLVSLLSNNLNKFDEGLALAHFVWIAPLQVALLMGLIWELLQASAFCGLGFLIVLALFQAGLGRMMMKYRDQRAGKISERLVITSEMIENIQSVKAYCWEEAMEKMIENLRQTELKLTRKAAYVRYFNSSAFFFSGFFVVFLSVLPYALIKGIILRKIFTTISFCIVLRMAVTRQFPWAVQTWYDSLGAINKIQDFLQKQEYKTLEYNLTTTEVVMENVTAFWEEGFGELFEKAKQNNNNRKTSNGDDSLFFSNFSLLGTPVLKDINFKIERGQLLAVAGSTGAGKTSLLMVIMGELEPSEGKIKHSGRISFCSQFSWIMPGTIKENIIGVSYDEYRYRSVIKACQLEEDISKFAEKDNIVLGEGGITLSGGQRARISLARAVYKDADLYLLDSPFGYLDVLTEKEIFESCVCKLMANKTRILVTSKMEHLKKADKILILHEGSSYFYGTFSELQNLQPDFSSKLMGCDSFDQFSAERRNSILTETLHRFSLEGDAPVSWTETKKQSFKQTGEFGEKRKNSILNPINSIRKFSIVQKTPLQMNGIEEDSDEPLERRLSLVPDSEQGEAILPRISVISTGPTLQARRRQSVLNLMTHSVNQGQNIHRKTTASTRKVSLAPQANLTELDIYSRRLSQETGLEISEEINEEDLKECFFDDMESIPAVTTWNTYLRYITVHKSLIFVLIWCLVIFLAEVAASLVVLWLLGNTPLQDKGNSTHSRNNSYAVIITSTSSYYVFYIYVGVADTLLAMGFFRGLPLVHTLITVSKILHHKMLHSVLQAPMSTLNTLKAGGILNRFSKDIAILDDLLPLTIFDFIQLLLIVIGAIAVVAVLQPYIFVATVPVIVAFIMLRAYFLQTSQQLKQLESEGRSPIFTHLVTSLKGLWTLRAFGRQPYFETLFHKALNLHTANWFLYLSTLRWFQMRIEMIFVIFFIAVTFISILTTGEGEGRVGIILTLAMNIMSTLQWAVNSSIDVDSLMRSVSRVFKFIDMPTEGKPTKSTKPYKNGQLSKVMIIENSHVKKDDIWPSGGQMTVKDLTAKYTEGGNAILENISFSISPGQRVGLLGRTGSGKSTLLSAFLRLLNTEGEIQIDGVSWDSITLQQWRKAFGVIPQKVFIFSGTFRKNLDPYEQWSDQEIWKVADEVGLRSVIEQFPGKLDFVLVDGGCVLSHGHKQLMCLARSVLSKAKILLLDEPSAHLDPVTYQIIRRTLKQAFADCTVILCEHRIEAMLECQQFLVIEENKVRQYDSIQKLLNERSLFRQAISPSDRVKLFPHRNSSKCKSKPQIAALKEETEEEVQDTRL

Row | SMILES | EC50 | % Activity
1 | CCC(CC)(CC)c1cc(F)c(NC(=O)c2cnc3ccccc3c2O)cc1O [Compound 34, N-[4-(1,1-diethylpropyl)-2-fluoro-5-hydroxy-phenyl]-4-hydroxy-quinoline-3-carboxamide] | < 10 µM | ++ (between 25% to 100%)
2 | CC1(C)CCCNc2cc(NC(=O)c3c[nH]c4ccccc4c3=O)ccc21 [Compound 35, 1,4-dihydro-N-(2,3,4,5-tetrahydro-5,5-dimethyl-1H-benzo[b]azepin-8-yl)-4-oxoquinoline-3-carboxamide] | < 10 µM | ++ (between 25% to 100%)
3 | CC(C)c1ccccc1NC(=O)c1c[nH]c2ccccc2c1=O [Compound 36, N-(2-isopropylphenyl)-4-oxo-1H-quinoline-3-carboxamide] | < 10 µM | ++ (between 25% to 100%)
4 | O=C(Nc1cccc2cc[nH]c12)c1c[nH]c2ccccc2c1=O [Compound 37, N-(1H-indol-7-yl)-4-oxo-1H-quinoline-3-carboxamide] | < 10 µM | ++ (between 25% to 100%)
5 | O=C(Nc1ccccc1-c1cc2ccccc2[nH]1)c1c[nH]c2ccccc2c1=O [Compound 38, N-[2-(1H-indol-2-yl)phenyl]-4-oxo-1H-quinoline-3-carboxamide] | < 10 µM | ++ (between 25% to 100%)
6 | COc1nc2ccccc2c(OC)c1C(=O)Nc1cc(NC(=O)OC(C)(C)C)ccc1C(C)(C)C [Compound 39, [3-[(2,4-dimethoxy-3-quinolyl)carbonylamino]-4-tert-butyl-phenyl]aminoformic acid tert-butyl ester] | 10 to 25 µM | ++ (between 25% to 100%)
7 | O=C(Nc1ccccc1CCO)c1c[nH]c2ccccc2c1=O [Compound 40, N-[2-(2-hydroxyethyl)phenyl]-4-oxo-1H-quinoline-3-carboxamide] | 25 to 60 µM | + (<25%)
8 | CCCc1ccc(N)cc1NC(=O)c1c[nH]c2ccccc2c1=O [Compound 41, N-(5-amino-2-propyl-phenyl)-4-oxo-1H-quinoline-3-carboxamide] | – | ++ (between 25% to 100%)
9 | O=C(Nc1ccccc1Oc1ncc(C(F)(F)F)cc1Cl)c1c[nH]c2ccccc2c1=O [Compound 42, N-[2-[[3-chloro-5-(trifluoromethyl)-2-pyridyl]oxy]phenyl]-4-oxo-1H-quinoline-3-carboxamide] | < 10 µM | ++ (between 25% to 100%)
10 | CCOc1cccc(-c2cc(C(C)(C)C)c(O)cc2NC(=O)c2c[nH]c3ccccc3c2=O)c1 [Compound 43, N-[2-(3-ethoxyphenyl)-5-hydroxy-4-tert-butyl-phenyl]-4-oxo-1H-quinoline-3-carboxamide] | < 10 µM | ++ (between 25% to 100%)
11 | Cc1nc2cc(NC(=O)c3c[nH]c4ccccc4c3=O)ccc2s1 [Compound 44, N-(2-methylbenzothiazol-5-yl)-4-oxo-1H-quinoline-3-carboxamide] | 10 to 25 µM | ++ (between 25% to 100%)
12 | O=C(Nc1cc(Cl)cc(NS(=O)(=O)CCN2CCOCC2)c1)c1c[nH]c2ccccc2c1=O [Compound 46, N-[3-chloro-5-(2-morpholinoethylsulfonylamino)phenyl]-4-oxo-1H-quinoline-3-carboxamide] | 10 to 25 µM | ++ (between 25% to 100%)
13 | CC(C)c1ccc(NC(=O)c2c[nH]c3ccccc3c2=O)c(C(F)(F)F)c1 [Compound 47, N-[4-isopropyl-2-(trifluoromethyl)phenyl]-4-oxo-1H-quinoline-3-carboxamide] | < 10 µM | ++ (between 25% to 100%)
14 | O=C(Nc1cc(Cl)ccc1F)c1c[nH]c2ccccc2c1=O [Compound 48, N-(5-chloro-2-fluoro-phenyl)-4-oxo-1H-quinoline-3-carboxamide] | < 10 µM | ++ (between 25% to 100%)
15 | COc1cccc(OC)c1-c1ccccc1NC(=O)c1c[nH]c2ccccc2c1=O [Compound 49, N-[2-(2,6-dimethoxyphenyl)phenyl]-4-oxo-1H-quinoline-3-carboxamide] | < 10 µM | ++ (between 25% to 100%)
16 | Cc1cc(C)c(NC(=O)c2c[nH]c3ccccc3c2=O)c(C)c1 [Compound 50, 4-oxo-N-(2,4,6-trimethylphenyl)-1H-quinoline-3-carboxamide] | < 10 µM | ++ (between 25% to 100%)

Row | SMILES | EC50 | % Activity
17 | CC1CCN(S(=O)(=O)c2ccc3[nH]cc(C(=O)Nc4cc5[nH]ccc5cc4C(C)(C)C)c(=O)c3c2)CC1 [Compound 51, 6-[(4-methyl-1-piperidyl)sulfonyl]-4-oxo-N-(5-tert-butyl-1H-indol-6-yl)-1H-quinoline-3-carboxamide] | < 10 µM | ++ (between 25% to 100%)
18 | Cc1cccc(-c2ccccc2NC(=O)c2c[nH]c3ccccc3c2=O)c1 [Compound 52, N-[2-(m-tolyl)phenyl]-4-oxo-1H-quinoline-3-carboxamide] | < 10 µM | ++ (between 25% to 100%)
19 | O=C(Nc1ccncc1)c1c[nH]c2ccccc2c1=O [Compound 53, 4-oxo-N-(4-pyridyl)-1H-quinoline-3-carboxamide] | 25 to 60 µM | + (<25%)
20 | O=C(Nc1cccc2nsnc12)c1c[nH]c2ccccc2c1=O [Compound 54, 4-oxo-N-(8-thia-7,9-diazabicyclo[4.3.0]nona-2,4,6,9-tetraen-5-yl)-1H-quinoline-3-carboxamide] | 25 to 60 µM | + (<25%)
21 | COc1c(N)cc(C(C)(C)C)cc1NC(=O)c1c[nH]c2ccccc2c1=O [Compound 55, N-(3-amino-2-methoxy-5-tert-butyl-phenyl)-4-oxo-1H-quinoline-3-carboxamide] | 25 to 60 µM | + (<25%)
22 | O=C(Nc1cc2c(cc1O)CCCC2)c1c[nH]c2ccccc2c1=O [Compound 56, 1,4-dihydro-N-(1,2,3,4-tetrahydro-6-hydroxynaphthalen-7-yl)-4-oxoquinoline-3-carboxamide] | < 10 µM | ++ (between 25% to 100%)
23 | CCC1(c2ccc(NC(=O)c3c[nH]c4ccccc4c3=O)cc2)CCC(=O)NC1=O (stereo not shown) [Compound 57, N-[4-(3-ethyl-2,6-dioxo-3-piperidyl)phenyl]-4-oxo-1H-quinoline-3-carboxamide] | 10 to 25 µM | +++ (>100%)
24 | Nc1cc(NC(=O)c2c[nH]c3ccccc3c2=O)ccc1OC(F)(F)F [Compound 58, N-[3-amino-4-(trifluoromethoxy)phenyl]-4-oxo-1H-quinoline-3-carboxamide] | < 10 µM | ++ (between 25% to 100%)
25 | COc1ccc(C(C)C)cc1-c1ccccc1NC(=O)c1c[nH]c2ccccc2c1=O [Compound 59, N-[2-(5-isopropyl-2-methoxy-phenyl)phenyl]-4-oxo-1H-quinoline-3-carboxamide] | < 10 µM | +++ (>100%)
26 | CC(C)c1ccc(NC(=O)OC(C)(C)C)cc1NC(=O)c1c[nH]c2ccccc2c1=O [Compound 60, [4-isopropyl-3-[(4-oxo-1H-quinolin-3-yl)carbonylamino]phenyl]aminoformic acid tert-butyl ester] | < 10 µM | ++ (between 25% to 100%)
27 | Cc1cccc(NC(=O)c2c[nH]c3ccccc3c2=O)c1C [Compound 61, N-(2,3-dimethylphenyl)-4-oxo-1H-quinoline-3-carboxamide] | < 10 µM | ++ (between 25% to 100%)
28 | O=C(Nc1cccc(OC(F)(F)F)c1)c1c[nH]c2ccccc2c1=O [Compound 62, 4-oxo-N-[3-(trifluoromethoxy)phenyl]-1H-quinoline-3-carboxamide] | < 10 µM | ++ (between 25% to 100%)
29 | O=C(Nc1ccccc1-c1ccc(F)cc1F)c1c[nH]c2ccccc2c1=O [Compound 63, N-[2-(2,4-difluorophenyl)phenyl]-4-oxo-1H-quinoline-3-carboxamide] | < 10 µM | ++ (between 25% to 100%)
30 | O=C(Nc1ccc2[nH]c(=O)[nH]c2c1)c1c[nH]c2ccccc2c1=O [Compound 64, 4-oxo-N-(2-oxo-1,3-dihydrobenzoimidazol-5-yl)-1H-quinoline-3-carboxamide] | 25 to 60 µM | + (<25%)
31 | O=C(Nc1cc2[nH]ccc2cc1-c1cccnc1)c1c[nH]c2ccccc2c1=O [Compound 65, 4-oxo-N-[5-(3-pyridyl)-1H-indol-6-yl]-1H-quinoline-3-carboxamide] | < 10 µM | ++ (between 25% to 100%)
